Laboratory results published in US9340577B2, “HLA binding motifs and peptides and their uses” (priority 1992, dated 2016).
No end group written: not given here.

Columns and labels:
Assay in all cases: biochemical
DR7 (DRB1*0701) = DR7 (DRB1*0701) (Homo sapiens, UniProt P01903+P01911, A100R/A102G/A103Q/D57E/D86V/E43K/F76Y/K127E/L162R/M171V/P40G/Q125H/Q99D/R33Q/R42Y/R54Q/S133A/S66F/T210M/V115G/Y107V/Y59L/Y89S); assay type: binding
DRB1*0301 = DRB1*0301 (Homo sapiens, UniProt P01903+P01911, A100K/A102G/A103R/A169T/F55Y/I96L/K41T/L162R/M171V/P40S/Q125H/Q178H/Q39Y/R42S/S66N/T106N/T262R/W38E/Y61H); assay type: binding
DRB1*0405 = DRB1*0405 (Homo sapiens, UniProt P01903+P01911, A100R/A169T/D86S/F76Y/I96L/K127E/L162R/M171V/N62H/P40V/Q125Y/R42H/S133A/S149N/S66Y/V115G/V209L/W38E); assay type: binding
DRB1*0802 = DRB1*0802 (Homo sapiens, UniProt P01903+P01911, A100R/A103L/A169T/F76Y/H45Y/I96F/K41T/L162R/M171V/P40S/Q125H/Q178H/Q39Y/Q99D/R218S/R42G/S66Y/V115G/W38E); assay type: binding
DRB1*0901 = DRB1*0901 (Homo sapiens, UniProt P01903+P01911, A100R/A103E/D57H/D86V/F55Y/F60I/F76Y/I96F/K127E/L162R/M171V/P40D/Q125H/Q99R/R33Q/R42F/S133A/S66N/T210M/V115G/W38K/Y107V/Y59G/Y89S); assay type: binding
DRB1*1501 = DRB1*1501 (Homo sapiens, UniProt P01903+P01911); assay type: binding
DRB4*0101 = DRB4*0101 (Homo sapiens, UniProt P01903+P13762, G164S); assay type: binding
DRB1*1101 = DRB1*1101 (Homo sapiens, UniProt P01903+P01911, A100R/A169T/A87E/I96F/K41T/L162R/M171V/P40S/Q125H/Q178H/Q39Y/Q99D/R42S/S66Y/T262R/V115G/W38E); details: Binding affinity DRB1 *1101
DRB5*0101 = DRB5*0101 (Homo sapiens, UniProt P01903+Q30154); details: Binding affinity DRB5 *0101
DR1 (DRB1*0101) = DR1 (DRB1*0101) (Homo sapiens, UniProt P01903+P01911, A100R/D57E/F55L/F60I/F76Y/I96L/L162R/M171V/P40L/Q125E/R42F/V115G/Y59C); assay type: binding
DR4w4 (DRB1*0401) = DR4w4 (DRB1*0401) (Homo sapiens, UniProt P01903+P01911, A100K/A169T/F76Y/I96L/K127E/L162R/M171V/N62H/P40V/Q125Y/R42H/S133A/S149N/S66Y/V115G/V209L/W38E); assay type: binding
DRB1*1201 = DRB1*1201 (Homo sapiens, UniProt P01903+P01911, A100R/A169T/D57E/D86V/F55L/H45Y/K41T/L162R/M171V/P40S/Q125H/Q178H/Q39Y/Q99D/R42G/S66L/T262R/V114A/V67L/W38E/Y59H/Y61H/Y89S); assay type: binding
DRB1*1302 = DRB1*1302 (Homo sapiens, UniProt P01903+P01911, A100E/A169T/K41T/L162R/M171V/P40S/Q125H/Q178H/Q39Y/Q99D/R42S/S66N/T262R/V115G/W38E/Y61H); assay type: binding
Sequence of DRB1*1302 (P01903 26-254 limits assumed, other chains not shown): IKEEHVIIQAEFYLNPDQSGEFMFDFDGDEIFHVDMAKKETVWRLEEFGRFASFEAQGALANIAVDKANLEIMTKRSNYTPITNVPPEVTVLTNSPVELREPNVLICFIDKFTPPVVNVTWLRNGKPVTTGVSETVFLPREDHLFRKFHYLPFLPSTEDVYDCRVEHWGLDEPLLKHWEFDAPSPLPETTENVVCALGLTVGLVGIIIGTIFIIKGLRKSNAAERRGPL

Sequence of DRB1*1101 (P01903 26-254 limits assumed, other chains not shown): as above
Sequence of DRB1*0301 (P01903 26-254 limits assumed, other chains not shown): as above

Work on TAIFGVNPTIAEGFK [Peptide 89.0024] yielded an IC50 (DR7 (DRB1*0701)) of 180 nM, an IC50 (DRB1*0301) of 374 nM and an IC50 (DRB1*0405) of 17 nM. It also gave an IC50 (DRB1*0802) of 11100 nM, an IC50 (DRB1*0901) of 4480 nM and an IC50 (DRB1*1501) of 11500 nM. For the same compound, the IC50 (DRB4*0101) was 592 nM, the IC50 (DRB1*1101) was 4040 nM and the IC50 (DRB5*0101) was 17900 nM.

In the case of TVEVQFDGDICNTMH [Peptide 90.0167], the IC50 (DR1 (DRB1*0101)) is reported as 2300 nM, the IC50 (DR4w4 (DRB1*0401)) is reported as 818 nM and the IC50 (DR7 (DRB1*0701)) is reported as 250 nM. The IC50 (DRB1*0405) was > 20000 nM, the IC50 (DRB1*0802) was > 20000 nM and the IC50 (DRB1*0901) was 583 nM. For the same compound, the IC50 (DRB1*1201) was > 20000 nM, the IC50 (DRB1*1302) was 39 nM and the IC50 (DRB1*1501) was 5080 nM. The IC50 (DRB4*0101) was 235 nM, the IC50 (DRB1*1101) was > 20000 nM and the IC50 (DRB5*0101) was > 20000 nM.

Work on GLYYWCDGEKIYFVK [Peptide 90.0226] yielded an IC50 (DR1 (DRB1*0101)) of 698 nM, an IC50 (DR7 (DRB1*0701)) of 4930 nM and an IC50 (DRB1*0301) of 432 nM. For the same compound, the IC50 (DRB1*0802) was > 20000 nM, the IC50 (DRB1*0901) was > 20000 nM and the IC50 (DRB1*1501) was 1300 nM. For the same compound, the IC50 (DRB4*0101) was > 20000 nM, the IC50 (DRB1*1101) was 9140 nM and the IC50 (DRB5*0101) was > 20000 nM.

In the case of FIHFLQGAIISFVNS [Peptide 89.0088], the IC50 (DR1 (DRB1*0101)) is reported as 51 nM, the IC50 (DR4w4 (DRB1*0401)) is reported as 2910 nM and the IC50 (DRB1*0301) is reported as 4390 nM. For the same compound, the IC50 (DRB1*0802) was > 20000 nM, the IC50 (DRB1*0901) was 867 nM and the IC50 (DRB1*1302) was 1590 nM. For the same compound, the IC50 (DRB4*0101) was 1680 nM, the IC50 (DRB1*1101) was 5600 nM and the IC50 (DRB5*0101) was > 20000 nM.

With DLRVVQQLLMGALTV [Peptide 85.0092] the IC50 (DRB1*0301) was > 20000 nM, the IC50 (DRB1*1501) was 57 nM and the IC50 (DRB1*1101) was 754 nM.

HIEFTPTRTDTYACRV [Peptide 530.12] was tested, and the IC50 (DR7 (DRB1*0701)) was > 12500 nM and the IC50 (DRB1*0301) was 30000 nM.

In the case of TPEWIERQTVLQHSF [Peptide 89.0048], the IC50 (DR1 (DRB1*0101)) is reported as 643 nM, the IC50 (DR4w4 (DRB1*0401)) is reported as 451 nM and the IC50 (DR7 (DRB1*0701)) is reported as > 20000 nM. The IC50 (DRB1*0301) was 34 nM, the IC50 (DRB1*0901) was > 20000 nM and the IC50 (DRB1*1302) was 5480 nM. For the same compound, the IC50 (DRB1*1501) was 6060 nM, the IC50 (DRB4*0101) was 19 nM and the IC50 (DRB5*0101) was > 20000 nM.

RLNLDNDEDKENNGD [Peptide 90.0144] showed an IC50 (DR1 (DRB1*0101)) of 31 nM, an IC50 (DR4w4 (DRB1*0401)) of 1780 nM and an IC50 (DR7 (DRB1*0701)) of 865 nM. For the same compound, the IC50 (DRB1*0405) was 1680 nM, the IC50 (DRB1*0802) was 4010 nM and the IC50 (DRB1*0901) was 19700 nM. For the same compound, the IC50 (DRB1*1201) was 4410 nM, the IC50 (DRB1*1302) was 1390 nM and the IC50 (DRB1*1501) was 581 nM. The IC50 (DRB4*0101) was 25 nM and the IC50 (DRB1*1101) was 1600 nM.

In the case of GGDWKQIVMFLRYQG [Peptide 89.0013], the IC50 (DR1 (DRB1*0101)) is reported as 2040 nM, the IC50 (DR4w4 (DRB1*0401)) is reported as 793 nM and the IC50 (DR7 (DRB1*0701)) is reported as 2460 nM. It also gave an IC50 (DRB1*0301) of 6320 nM, an IC50 (DRB1*1302) of 899 nM and an IC50 (DRB4*0101) of 7.9 nM. It also gave an IC50 (DRB1*1101) of 198 nM and an IC50 (DRB5*0101) of 14 nM.

CC[C@H](C)[C@H](NC(=O)[C@@H](NC(=O)[C@@H]1CCCN1C(=O)[C@H](Cc1ccccc1)NC(=O)[C@H](Cc1ccccc1)NC(=O)[C@H](Cc1ccc(O)cc1)NC(=O)[C@H](CCC(N)=O)NC(=O)[C@H](Cc1c[nH]c2ccccc12)NC(=O)[C@H](CC(N)=O)NC(=O)CNC(=O)[C@@H](N)C(C)C)C(C)C)C(=O)N[C@@H](Cc1ccccc1)C(=O)N[C@@H](CO)C(=O)N[C@@H](CCCCN)C(=O)N[C@@H](C)C(=O)O [Peptide 58.0114] gave an IC50 (DRB1*0301) of 4.1 nM.

TTIYNNEEWTLRDTC [Peptide 90.0232] was tested, and the IC50 (DR1 (DRB1*0101)) was 10600 nM, the IC50 (DR4w4 (DRB1*0401)) was > 20000 nM and the IC50 (DR7 (DRB1*0701)) was > 20000 nM. The IC50 (DRB1*0405) was > 20000 nM, the IC50 (DRB1*0802) was > 20000 nM and the IC50 (DRB1*0901) was > 20000 nM. For the same compound, the IC50 (DRB1*1201) was > 20000 nM, the IC50 (DRB1*1302) was 1010 nM and the IC50 (DRB1*1501) was 10200 nM. For the same compound, the IC50 (DRB4*0101) was > 20000 nM, the IC50 (DRB1*1101) was 3430 nM and the IC50 (DRB5*0101) was > 20000 nM.

LSHVKIPVVYRLVWD [Peptide 90.0020] gave an IC50 (DR1 (DRB1*0101)) of 79 nM, an IC50 (DR4w4 (DRB1*0401)) of 3950 nM and an IC50 (DRB1*0405) of 525 nM. The IC50 (DRB1*0802) was 3570 nM, the IC50 (DRB1*0901) was 469 nM and the IC50 (DRB1*1201) was 100 nM. The IC50 (DRB1*1302) was 329 nM, the IC50 (DRB4*0101) was 22 nM and the IC50 (DRB5*0101) was 1340 nM.

HWKLIRMECAIMYTA [Peptide 90.0021] showed an IC50 (DR1 (DRB1*0101)) of 28 nM, an IC50 (DR7 (DRB1*0701)) of 2640 nM and an IC50 (DRB1*0301) of 82 nM. It also gave an IC50 (DRB1*0405) of 84 nM, an IC50 (DRB1*0802) of 14100 nM and an IC50 (DRB1*1302) of 54 nM. For the same compound, the IC50 (DRB1*1501) was 3840 nM, the IC50 (DRB4*0101) was 161 nM and the IC50 (DRB5*0101) was 3070 nM.
